{"source": "patent US4309559A", "about": "“Sulphonamides useful as pesticides” (FBC Limited, priority 1977, dated 1982)", "format_in_all_cases": "in vivo", "key": {"[1]": {"tested_on": "Barnyardgrass (Echinochloa crus-galli)", "assay": "Pre-emergence soil surface spray, barnyardgrass", "conditions": "soil surface spray 2.8 kg/ha, 21 days, 0=no effect, 100=complete kill", "excerpt": "(§1) Seeds of the plant species listed below were sown in John Innes I potting compost in aluminium pans, 19 cm long×9.5 cm wide×5.0 cm high, one species per pan. The soil surface was then sprayed with a compound listed below, formulated as a solution in 1:1 by volume aqueous acetone except for the compound of Example 44 which was formulated as an aqueous suspension containing 1000 parts per million of the wetting agent Lissapol NX (nonylphenol/ethylene oxide condensate). Each compound was applied at a rate of 2.8 kg of active ingredient per hectare in 450 liters of spray liquid per hectare. The pans were then watered, and placed in a controlled environment room (22° C., relative humidity 65-85%, 14 hours per day artificial illumination at 17,000 lux) for 21 days. The plants were then visually assessed for any growth regulatory or herbicidal effects. All differences from an untreated control were scored on a scale from 0-100, where 0 signifies no effect and 100 signifies complete kill."}, "[2]": {"tested_on": "Crabgrass (Digitaria sanguinalis)", "assay": "Pre-emergence soil surface spray, crabgrass", "conditions": "soil surface spray 2.8 kg/ha, 21 days, 0=no effect, 100=complete kill", "excerpt": "as §1"}, "Oat (Avena sativa)": {"tested_on": "Oat (Avena sativa)", "assay": "Post-emergence foliar spray, herbicidal/growth regulant response, oat", "conditions": "168 h, foliar spray 11.2 kg/ha, 7 days, 0=no effect, 100=complete kill, read-out: herbicidal or growth regulant response index", "procedure": "(§2) Seeds of the plant species listed below were sown in anodised aluminium pans, 19 cm long×9.5 cm wide×5 cm deep, containing John Innes I potting compost. They were then watered and placed in a controlled environment room (22° C.; 65-85% relative humidity; 14 hours per day artificial illumination at 13,000 lux). Fourteen days after sowing, the seedlings received a foliar spray of a compound listed below, formulated as a solution in 1:1 by volume aqueous acetone. The concentration of active ingredient and volume of application were adjusted so as to be equivalent to a rate of 11.2 kg/ha in 450 liters per hectare. After seven days growth in the controlled environment room, the plants were visually assessed for any herbicidal or growth regulant response. All differences from the untreated control were scored according to an index where 0=no effect and 100=complete kill.\n(§3) The product of Example 95 was tested according to the procedure of Examples 49-55."}, "Peas (Pisum sativum) [3]": {"tested_on": "Peas (Pisum sativum)", "assay": "Post-emergence foliar spray, herbicidal/growth regulant response, peas", "conditions": "Lathyrus oleraceus, 168 h, foliar spray 11.2 kg/ha, 7 days, 0=no effect, 100=complete kill, read-out: herbicidal or growth regulant response index", "procedure": "as §2, §3"}, "[4]": {"tested_on": "Wheat (Triticum aestivum)", "assay": "Pre-emergence soil surface spray, wheat", "conditions": "soil surface spray 2.8 kg/ha, 21 days, 0=no effect, 100=complete kill", "excerpt": "as §1"}, "[5]": {"tested_on": "Linseed (Linum usitatissimum)", "assay": "Post-emergence foliar spray, herbicidal/growth regulant response, linseed", "conditions": "168 h, foliar spray 11.2 kg/ha, 7 days, 0=no effect, 100=complete kill, read-out: herbicidal or growth regulant response index", "procedure": "as §2, §3"}, "[6]": {"tested_on": "Blackgrass (Alopecurus myosuroides)", "assay": "Pre-emergence soil surface spray, blackgrass", "conditions": "soil surface spray 2.8 kg/ha, 21 days, 0=no effect, 100=complete kill", "excerpt": "as §1"}, "Barley (Hordeum vulgare)": {"tested_on": "Barley (Hordeum vulgare)", "assay": "Pre-emergence soil surface spray, barley", "conditions": "soil surface spray 2.8 kg/ha, 21 days, 0=no effect, 100=complete kill", "excerpt": "as §1"}, "Peas (Pisum sativum) [7]": {"tested_on": "Peas (Pisum sativum)", "assay": "Soil incorporation (attaclay/sand dust), growth regulatory or herbicidal effects, peas", "conditions": "Lathyrus oleraceus, 504 h, soil incorporation 26 ppm, 21 days, 0=no effect, 100=complete kill, read-out: growth regulatory or herbicidal effect score", "excerpt": "(§4) The compounds listed below were each formulated as an attaclay/sand dust and incorporated into John Innes I potting compost at a rate equivalent to 26 parts per million weight/volume of active ingredient to soil and placed in anodised aluminium pans, 19 cm long×9.5 cm wide×5.0 cm deep. This rate is approximately equivalent to a soil surface application of 11.2 kg active ingredient/hectare cultivated to a depth of 5 cm. Seeds of the species listed below were sown in the treated soil, watered and placed in a controlled environment room (22° C.; 65-85% relative humidity; 14 hours per day artificial illumination at 13,000 lux) for 21 days. The plants were then visually assessed for any growth regulatory or herbicidal effects. All differences from an untreated control were scored on a scale from 0-100, where 0 signifies no effect and 100 signifies complete kill.\n(§5) The compounds listed below were tested according to the procedure of Examples 56-60 but at 130 parts per million weight/volume of active ingredient to soil. This rate is approximately equivalent to a soil surface application of 56 kg active ingredient per hectare cultivated to a depth of 5 cm.\n(§6) The product of Example 95 was tested according to the procedure of Examples 56-60 but at 130 and 26 parts per million weight/volume. The results were as follows:\n(§7) N-(2-oxopropyl)-2'-chloro-6'-methyl-methanesulphonanilide, formulated as an attaclay/sand dust, was incorporated in John Innes I potting compost at a rate equivalent to 130 parts per million weight/volume of active ingredient to soil and placed in anodised aluminium pans, 19 cm long×9.5 cm wide×5.0 cm deep. These rates are approximately equivalent to a soil surface application of 56 kg active ingredient per hectare cultivated to a depth of 5 cm. Seeds of Peas, Mustard, Linseed, Maize, Oats and Ryegrass were sown in the treated soil, watered and placed in a controlled environment room (22° C.; 65-85% relative humidity; 14 hours artificial illumination at 13000 lux) for 21 days.\n(§8) The plants were then visually assessed for any growth regulatory or herbicidal effects. All differences from an untreated control were scored on a scale from 0-100, where 0 signifies no effect and 100 signifies complete suppression."}, "[8]": {"tested_on": "Ryegrass (Lolium perenne)", "assay": "Soil incorporation (attaclay/sand dust), growth regulatory or herbicidal effects, ryegrass", "conditions": "504 h, soil incorporation 26 ppm, 21 days, 0=no effect, 100=complete kill, read-out: growth regulatory or herbicidal effect score", "excerpt": "as §4, §5, §6, §7, §8"}, "[9]": {"tested_on": "Ryegrass (Lolium perenne)", "assay": "Post-emergence foliar spray, herbicidal/growth regulant response, ryegrass", "conditions": "168 h, foliar spray 11.2 kg/ha, 7 days, 0=no effect, 100=complete kill, read-out: herbicidal or growth regulant response index", "procedure": "as §2, §3"}, "Oats (Avena sativa)": {"tested_on": "Oats (Avena sativa)", "assay": "Soil incorporation (attaclay/sand dust), growth regulatory or herbicidal effects, oats", "conditions": "504 h, soil incorporation 26 ppm, 21 days, 0=no effect, 100=complete kill, read-out: growth regulatory or herbicidal effect score", "excerpt": "as §4, §5, §6, §7, §8"}, "[10]": {"tested_on": "Sugarbeet (Beta vulgaris)", "assay": "Post-emergence foliar spray, herbicidal/growth regulant response, sugarbeet", "conditions": "168 h, foliar spray 11.2 kg/ha, 7 days, 0=no effect, 100=complete kill, read-out: herbicidal or growth regulant response index", "procedure": "as §2, §3"}, "Wild Oat (Avena fatua)": {"tested_on": "Wild Oat (Avena fatua)", "assay": "Pre-emergence soil surface spray, wild oat", "conditions": "soil surface spray 2.8 kg/ha, 21 days, 0=no effect, 100=complete kill", "excerpt": "as §1"}, "Mustard (Sinapis alba) [11]": {"tested_on": "Mustard (Sinapis alba)", "assay": "Post-emergence foliar spray, herbicidal/growth regulant response, mustard", "conditions": "168 h, foliar spray 11.2 kg/ha, 7 days, 0=no effect, 100=complete kill, read-out: herbicidal or growth regulant response index", "procedure": "as §2, §3"}, "[12]": {"tested_on": "French beans (Phaseolus vulgaris)", "assay": "Post-emergence foliar spray, herbicidal/growth regulant response, French beans", "conditions": "foliar spray 11.2 kg/ha, 7 days, 0=no effect, 100=complete kill", "procedure": "as §2, §3"}, "Maize (Zea mays)": {"tested_on": "Maize (Zea mays)", "assay": "Soil incorporation (attaclay/sand dust), growth regulatory or herbicidal effects, maize", "conditions": "504 h, soil incorporation 26 ppm, 21 days, 0=no effect, 100=complete kill, read-out: growth regulatory or herbicidal effect score", "excerpt": "as §4, §5, §6, §7, §8"}, "[13]": {"tested_on": "Linseed (Linum usitatissimum)", "assay": "Soil incorporation (attaclay/sand dust), growth regulatory or herbicidal effects, linseed", "conditions": "504 h, soil incorporation 26 ppm, 21 days, 0=no effect, 100=complete kill, read-out: growth regulatory or herbicidal effect score", "excerpt": "as §4, §5, §6, §7, §8"}, "Mustard (Sinapis alba) [14]": {"tested_on": "Mustard (Sinapis alba)", "assay": "Soil incorporation (attaclay/sand dust), growth regulatory or herbicidal effects, mustard", "conditions": "504 h, soil incorporation 26 ppm, 21 days, 0=no effect, 100=complete kill, read-out: growth regulatory or herbicidal effect score", "excerpt": "as §4, §5, §6, §7, §8"}, "[15]": {"tested_on": "vine downy mildew Plasmopara viticola", "assay": "Vine downy mildew control on vine plants (leaf application)", "conditions": "leaves, 12 days, controls less than 5%", "procedure": "Aqueous acetone solutions or suspensions containing 2000 or 500 mg of the compound listed below per liter, together with 125 mg of a wetting agent per liter, were applied to:\n(B) the leaves of vine plants having five fully expanded leaves;\nThe treated plants, together with controls treated with wetting agent alone, were inoculated 24 hours after the chemical application:\nin the case of (B) with an aqueous suspension of sporangia of the disease organism vine downy mildew Plasmopara viticola;\nin the case of (B) were placed in an atomosphere of 80-100% humidity at 14°-18° C. until the disease incidence was measured twelve days later;"}, "[16]": {"tested_on": "cucumber powdery mildew Erysiphe cichoracearum", "assay": "Cucumber powdery mildew control on cucumber plants", "conditions": "2000 ppm; soil and leaves; 14 days; controls less than 5%"}, "[17]": {"tested_on": "barley powdery mildew Erysiphe graminis", "assay": "Barley powdery mildew control on barley plants", "conditions": "2000 ppm; soil and leaves; 10 days; controls less than 5%"}, "[18]": {"tested_on": "rice blast Pyricularia oryzae", "conditions": "2000 ppm; soil and leaves; 7 days; controls less than 5%"}}, "data": [{"smiles": "CCCS(=O)(=O)N(c1c(C)cccc1C)C(C)C(=O)OC(C)C", "note": "(stereo not drawn) [Example 3]", "values": [{"measurement": "growth regulatory or herbicidal effect score", "setting": "[1]", "value": 60}, {"measurement": "growth regulatory or herbicidal effect score", "setting": "[2]", "value": 90}, {"measurement": "plant injury at 11200 g/ha", "setting": "Oat (Avena sativa)", "value": 5, "unit": "%"}, {"measurement": "pest or weed control at 11200 g/ha", "setting": "Peas (Pisum sativum) [3]", "value": 5, "unit": "%"}, {"measurement": "growth regulatory or herbicidal effect score", "setting": "[4]", "value": 0}, {"measurement": "pest or weed control at 11200 g/ha", "setting": "[5]", "value": 30, "unit": "%"}, {"measurement": "growth regulatory or herbicidal effect score", "setting": "[6]", "value": 90}, {"measurement": "growth regulatory or herbicidal effect score", "setting": "Barley (Hordeum vulgare)", "value": 0}, {"measurement": "pest or weed control at 26 µg/mL", "setting": "Peas (Pisum sativum) [7]", "value": 0, "unit": "%"}, {"measurement": "pest or weed control at 26 µg/mL", "setting": "[8]", "value": 90, "unit": "%"}, {"measurement": "pest or weed control at 11200 g/ha", "setting": "[9]", "value": 15, "unit": "%"}, {"measurement": "plant injury at 26 µg/mL", "setting": "Oats (Avena sativa)", "value": 20, "unit": "%"}, {"measurement": "plant injury at 11200 g/ha", "setting": "[10]", "value": 90, "unit": "%"}, {"measurement": "growth regulatory or herbicidal effect score", "setting": "Wild Oat (Avena fatua)", "value": 80}, {"measurement": "pest or weed control at 11200 g/ha", "setting": "Mustard (Sinapis alba) [11]", "value": 90, "unit": "%"}, {"measurement": "herbicidal or growth regulant response index", "setting": "[12]", "value": 80}, {"measurement": "plant injury at 26 µg/mL", "setting": "Maize (Zea mays)", "value": 20, "unit": "%"}, {"measurement": "pest or weed control at 26 µg/mL", "setting": "[13]", "value": 20, "unit": "%"}, {"measurement": "pest or weed control at 26 µg/mL", "setting": "Mustard (Sinapis alba) [14]", "value": 90, "unit": "%"}]}, {"smiles": "COC(=O)C(C)N(c1c(C)cccc1C)S(C)(=O)=O", "note": "(stereo not drawn) [Example 29, N-(1-(methoxycarbonyl)ethyl)-2',6'-dimethyl-methanesulphonanilide]", "values": [{"measurement": "% Control, vine downy mildew", "setting": "[15]; 500 ppm", "value": 90, "unit": "%"}, {"measurement": "% Control, vine downy mildew", "setting": "[15]; 2000 ppm", "value": 98, "unit": "%"}]}, {"smiles": "Cc1cccc(C)c1N(C1CCOC1=O)S(C)(=O)=O", "note": "(stereo not drawn) [Example 123]", "values": [{"measurement": "% Control, cucumber powdery mildew", "setting": "[16]", "value": 92, "unit": "%"}, {"measurement": "% Control, barley powdery mildew", "setting": "[17]", "value": 95, "unit": "%"}]}, {"smiles": "CS(=O)(=O)N(CC#N)c1ccc(SC#N)cc1", "note": "[Example 141]", "values": [{"measurement": "% Control, rice blast", "setting": "[18]", "value": 84, "unit": "%"}]}]}
